Marks after values point to notes of the source that are not given here.
How the values were obtained:
[1] = test system: TA98; test: Ames test, strain TA98; assay type: cell-based
Procedure: (§1) To assess the mutagenic effects of 5 compounds (IMM-004; IMM-065; IMM-127; IMM-128; IMM-313), the Ames test was performed in 4 strains (TA97; TA98; TA100; TA102). The experiment was conducted with compounds at 4 concentration levels (0.5, 5, 50 and 500 μg/dish). […]

[2] = test system: TA97; TA98; TA100; TA102; test: Ames (mutagenesis) test, overall result in 4 strains; assay type: cell-based; settings: 0.5, 5, 50 and 500 μg/dish
Procedure: as §1

[3] = test system: arrhythmia caused by ischemia/reperfusion insults in anaesthetic rats; test: Ischemia/reperfusion arrhythmia in anaesthetic rats, intravenous injection; assay type: in vivo, rat; settings: for incidence and duration of VT, VF, VE / ventricular arrhythmic / latency of ventricular arrhythmic: 3 mg/Kg intravenous (femoral vein), rats; for Occurrence time / VE Duration time / VE Incidence (%) / VF Duration time / VF Incidence (%) / VT Duration time / VT Incidence (%): intravenously injected per table title
Excerpt: (1) Protective Effects of the Tested Compounds on Myocardial Insults in Rats after Intravenously Injection
Arrhythmic potency induced by myocardial insults was used to assess the potential protective effect of the compounds.

[4] = target: T1, Na^+/Ca^2+ exchanger (Cavia porcellus, UniProt P48766); test: Na^+/Ca^2+ exchange current (INa—Ca), whole-cell patch clamp, intracellular Na^+ overload cell model; assay type: cell-based, guinea pig
T1 construct: endogenous in cells; host or cells: freshly isolated guinea pig ventricular myocytes
How it was run: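 Whole-cell patch clamp on guinea pig ventricular myocytes, Na⁺-loaded via pipette dialysis; holding −40 mV, step to +60 mV, ramp down at 80 mV·s⁻¹ to −100 mV, 0.05 Hz. K⁺, L-type Ca²⁺ and Na⁺/K⁺-ATPase blocked; INa–Ca taken as 5 mmol·L⁻¹ Ni²⁺-sensitive current.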

[5] = Example 1 table, myocardial cell
[6] = screening of 22 candidate compounds

O=c1c2cc(Cl)ccc2[se]n1-c1ccccn1 [IMM-004, 5-chloro-2-(2-pyridyl)-1,2-benz-isoselenazol-3(2H)-one]
TA98 +S9 ([1]; 0.5 μg/dish): 70.67 ± 6.85
TA98 −S9 ([1]; 0.5 μg/dish): 56.33 ± 1.25
TA98 +S9 ([1]; 5 μg/dish): 48.33 ± 11.95
TA98 −S9 ([1]; 5 μg/dish): 29.33 ± 0.94
TA98 +S9 ([1]; 50 μg/dish): 60.67 ± 26.64
TA98 −S9 ([1]; 50 μg/dish): 19.67 ± 3.29
TA98 +S9 ([1]; 500 μg/dish): 55.33 ± 15.92
TA98 −S9 ([1]; 500 μg/dish): 24.67 ± 4.71
mutagenic effect (Ames test) [2]: No evidence for a mutagenic effect
incidence and duration of VT, VF, VE / ventricular arrhythmic [3]: all reduced
latency of ventricular arrhythmic [3]: significantly prolonged
Occurrence time ([3]; 10 mg/Kg): 9.3 ± 10.0 s
VE Duration time ([3]; 10 mg/Kg): 4.7 ± 12.9 s
VE Incidence (%) ([3]; 10 mg/Kg): 100%
VF Duration time ([3]; 10 mg/Kg): 8.8 ± 7.4 s
VF Incidence (%) ([3]; 10 mg/Kg): 22.2%
VT Duration time ([3]; 10 mg/Kg): 30.2 ± 17.6 s
VT Incidence (%) ([3]; 10 mg/Kg): 88.9%
Occurrence time ([3]; 30 mg/Kg): 19.6 ± 24.1 s
VE Duration time ([3]; 30 mg/Kg): 0.4 ± 1.3 s
VE Incidence (%) ([3]; 30 mg/Kg): 66.7%
VF Duration time ([3]; 30 mg/Kg): 3.3 ± 5.7 s
VF Incidence (%) ([3]; 30 mg/Kg): 11.1* %
VT Duration time ([3]; 30 mg/Kg): 17.0 ± 12.6 s
VT Incidence (%) ([3]; 30 mg/Kg): 44.4** %
Occurrence time ([3]; 100 mg/Kg): 16.4 ± 25.1 s
VE Duration time ([3]; 100 mg/Kg): 5.5 ± 10.2 s
VE Incidence (%) ([3]; 100 mg/Kg): 66.7%
VF Duration time ([3]; 100 mg/Kg): 3.9 ± 6.8 s
VF Incidence (%) ([3]; 100 mg/Kg): 33.3%
VT Duration time ([3]; 100 mg/Kg): 22.7 ± 19.4 s
VT Incidence (%) ([3]; 100 mg/Kg): 55.5* %
Inhibitory rate of inward INa—Ca (%) [4, 5]: 44%
Inhibitory rate of outward INa—Ca (%) [4, 5]: 52%
Inhibitory rate of inward INa—Ca (%) [4, 6]: 44%
Inhibitory rate of outward INa—Ca (%) [4, 6]: 52* %

O=c1c2cc(F)ccc2[se]n1-c1ccccn1 [IMM-127, 5-fluoro-2-(2-pyridyl)-1,2-benz-isoselenazol-3(2H)-one]
TA98 +S9 ([1]; 0.5 μg/dish): 73.67 ± 4.63
TA98 −S9 ([1]; 0.5 μg/dish): 93.50 ± 10.50
TA98 +S9 ([1]; 5 μg/dish): 53.00 ± 5.72
TA98 −S9 ([1]; 5 μg/dish): 85.00 ± 5.00
TA98 +S9 ([1]; 50 μg/dish): 42.33 ± 7.41
TA98 −S9 ([1]; 50 μg/dish): 89.00 ± 10.61
TA98 +S9 ([1]; 500 μg/dish): 42.67 ± 5.31
TA98 −S9 ([1]; 500 μg/dish): 96.00 ± 4.90
mutagenic effect (Ames test) [2]: No evidence for a mutagenic effect
incidence and duration of VT, VF, VE / ventricular arrhythmic [3]: all reduced
latency of ventricular arrhythmic [3]: significantly prolonged
Occurrence time ([3]; 10 mg/Kg): 15.5 ± 21.5 s
VE Duration time ([3]; 10 mg/Kg): 2.5 ± 6.4 s
VE Incidence (%) ([3]; 10 mg/Kg): 100%
VF Duration time ([3]; 10 mg/Kg): 6.6 ± 7.2 s
VF Incidence (%) ([3]; 10 mg/Kg): 22.2%
VT Duration time ([3]; 10 mg/Kg): 32.1 ± 26.1 s
VT Incidence (%) ([3]; 10 mg/Kg): 66.7%
Occurrence time ([3]; 30 mg/Kg): 9.6 ± 9.2 s
VE Duration time ([3]; 30 mg/Kg): 0.2 ± 0.5 s
VE Incidence (%) ([3]; 30 mg/Kg): 100%
VF Duration time ([3]; 30 mg/Kg): 3.2 ± 5.5 s
VF Incidence (%) ([3]; 30 mg/Kg): 11.1* %
VT Duration time ([3]; 30 mg/Kg): 18.0 ± 11.4 s
VT Incidence (%) ([3]; 30 mg/Kg): 66.7%
Occurrence time ([3]; 100 mg/Kg): 9.0 ± 19.7 s
VE Duration time ([3]; 100 mg/Kg): 2.2 ± 63 s
VE Incidence (%) ([3]; 100 mg/Kg): 88.9%
VF Duration time ([3]; 100 mg/Kg): 5.1 ± 7.8 s
VF Incidence (%) ([3]; 100 mg/Kg): 22.2%
VT Duration time ([3]; 100 mg/Kg): 31.1 ± 21.3 s
VT Incidence (%) ([3]; 100 mg/Kg): 44.4** %
Inhibitory rate of inward INa—Ca (%) [4, 5]: 21%
Inhibitory rate of outward INa—Ca (%) [4, 5]: 43%
Inhibitory rate of inward INa—Ca (%) [4, 6]: 21%
Inhibitory rate of outward INa—Ca (%) [4, 6]: 43* %
